Tests used:
PHEX = target: T1, PHEX (Homo sapiens, UniProt P78562); settings: applicants previous observation (17); cited from earlier work
T1 sequence (P78562 1-749): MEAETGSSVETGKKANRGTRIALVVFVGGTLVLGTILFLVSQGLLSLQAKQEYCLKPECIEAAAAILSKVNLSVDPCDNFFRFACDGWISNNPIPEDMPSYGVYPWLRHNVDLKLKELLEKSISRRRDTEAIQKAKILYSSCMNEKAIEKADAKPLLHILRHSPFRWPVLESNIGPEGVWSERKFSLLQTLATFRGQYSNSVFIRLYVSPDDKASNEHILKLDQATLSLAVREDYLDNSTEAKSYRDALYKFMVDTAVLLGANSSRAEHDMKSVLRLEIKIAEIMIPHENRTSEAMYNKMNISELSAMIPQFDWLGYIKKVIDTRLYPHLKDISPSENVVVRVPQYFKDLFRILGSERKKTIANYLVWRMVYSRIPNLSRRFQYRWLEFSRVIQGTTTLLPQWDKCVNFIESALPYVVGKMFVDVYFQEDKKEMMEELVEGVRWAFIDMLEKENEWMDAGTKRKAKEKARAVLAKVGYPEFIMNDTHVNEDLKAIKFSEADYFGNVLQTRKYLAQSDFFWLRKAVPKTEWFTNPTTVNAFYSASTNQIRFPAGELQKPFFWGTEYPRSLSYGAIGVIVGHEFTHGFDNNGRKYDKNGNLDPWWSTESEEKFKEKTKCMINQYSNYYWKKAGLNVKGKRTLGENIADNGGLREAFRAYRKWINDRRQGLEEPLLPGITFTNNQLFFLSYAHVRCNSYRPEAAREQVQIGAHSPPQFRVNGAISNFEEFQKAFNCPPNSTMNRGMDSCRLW

secPHEX = target: T2, secPHEX (Homo sapiens, UniProt P78562); experiment: secPHEX activity with NEP-specific substrate and inhibitor; format: biochemical; settings: thiorphan 10^−6 M, 10 μM substrate, 30 minutes
T2 construct: pure soluble form of PHEX (secPHEX); made in house
T2 sequence (P78562 46-749 limits assumed): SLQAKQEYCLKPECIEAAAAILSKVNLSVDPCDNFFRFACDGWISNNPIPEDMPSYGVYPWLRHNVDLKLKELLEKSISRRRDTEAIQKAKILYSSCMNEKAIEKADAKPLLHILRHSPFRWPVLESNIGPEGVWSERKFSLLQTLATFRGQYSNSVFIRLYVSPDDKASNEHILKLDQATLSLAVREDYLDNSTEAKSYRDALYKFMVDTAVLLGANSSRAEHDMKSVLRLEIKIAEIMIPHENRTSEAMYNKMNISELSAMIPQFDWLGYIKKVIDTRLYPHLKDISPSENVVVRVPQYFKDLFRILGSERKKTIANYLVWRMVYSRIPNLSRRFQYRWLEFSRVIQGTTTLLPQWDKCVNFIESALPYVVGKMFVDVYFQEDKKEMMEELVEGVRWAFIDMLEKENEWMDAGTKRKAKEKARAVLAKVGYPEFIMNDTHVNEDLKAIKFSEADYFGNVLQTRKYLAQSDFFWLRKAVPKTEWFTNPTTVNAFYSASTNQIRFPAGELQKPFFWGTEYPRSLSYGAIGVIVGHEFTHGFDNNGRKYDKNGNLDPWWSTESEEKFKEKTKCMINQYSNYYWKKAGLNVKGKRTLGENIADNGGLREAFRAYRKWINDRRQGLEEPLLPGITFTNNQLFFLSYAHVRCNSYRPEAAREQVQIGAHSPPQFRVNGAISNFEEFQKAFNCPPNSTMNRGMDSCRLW
Experimental: (§1) FIG. 4 graphically illustrates the activity of PHEX in the presence of NEP-specific substrate and inhibitor. NEP, secPHEX and membrane-bound PHEX (mPHEX) activities were measured after 30 minutes of incubation in presence of either 10 μM Abz-DRRL-EDDnp (SEQ ID NO:8) (A) or 10 μM Abz-GFSDYK(Dnp)-OH (SEQ ID NO:3) (B). Fluorescence detection (AFU) at γem=420 nm and γex=320 nm was determined as described under the heading “Experimental Procedures” below. When present, thiorphan, a NEP-specific inhibitor, was at a concentration of 10^−6 M. Data are a compilation of three different experiments;
(§2) The activities of membrane-bound PHEX and secPHEX were also compared with the NEP-specific substrate Abz-DRRL-EDDnp (SEQ ID NO:8) (46).

[1] = target: T3, membrane-bound PHEX (mPHEX) (Homo sapiens, UniProt P78562); experiment: Membrane-bound PHEX activity with NEP-specific substrate and inhibitor; format: biochemical; settings: thiorphan 10^−6 M, 10 μM substrate, 30 minutes
T3 construct: expressed in transfected cells; host or cells: LLC-PK1 (porcine kidney cells)
Experimental: as §1, §2

NEP = NEP activity with NEP-specific substrate and inhibitor; format: biochemical; settings: thiorphan 10^−6 M, 10 μM Abz-DRRL-EDDnp, 30 minutes
Experimental: as §1
The human recombinant secPHEX was obtained following the procedure previously described (17, WO 00/50580). Purified secPHEX concentration was determined using the Bradford method (DC protein assay kit; Bio-Rad, Mississauga, ON, Canada). Membrane-bound recombinant human PHEX was expressed in LLC-PK1 cells (17, (WO 00/50580)) and membranes were prepared essentially as described by Guo et al. (34). Briefly, transfected cells resuspended in lysis buffer (150 mM NaCl, 20 mM Tris.HCl, pH 7.6) were disrupted by sonication. […] Insoluble material was pelleted by centrifugation at 10,000 g for 15 min and protein concentrations of the supernatant determined using the Bradford method described above. PHEX amounts were evaluated by immunoblotting as described previously (17). […]

Molecule	cleavage by PHEX (PHEX)	inhibition of cleavage of Abz-GFSDYK(Dnp)-OH (secPHEX)	inhibition of cleavage of Abz-GFSDYK(Dnp)-OH [1]	inhibition of NEP activity (NEP)
substance P	could not cleave			
O=C(O)CNC(=O)C(CS)Cc1ccccc1 (stereo not shown) [thiorphan]		did not prevent cleavage	did not prevent cleavage	completely inhibited
